Test results published in paper PMC4336141, “Repurposing Auranofin as a Lead Candidate for Treatment of Lymphatic Filariasis and Onchocerciasis” (PLoS Neglected Tropical Diseases, 2015).

Columns and labels:
[1] = test system: endogenous Brugia thioredoxin reductase; assay: Thioredoxin reductase activity of lysates of female B. malayi treated in vitro; type: biochemical, Brugia malayi; conditions: 5 hours in vitro, female worms, soluble lysate
Experimental: Thioredoxin reductase activity of worm lysates was assayed using female B. malayi treated in vitro with either 0.3 μM, 0.1 μM, or 0.03 μM auranofin or 1% DMSO. After 5 hours of treatment, worm motility was measured using the Worminator, and then worms (24 in each group) were pooled, washed three times in PBS, and lysed by douncing in a glass homogenizer in assay buffer (Abcam Thioredoxin Reductase Assay kit, ab83463) with 1 mM PMSF. The crude lysates were centrifuged at 10,000 rcf for 15 minutes at 4°C to pellet insoluble material. The total protein concentrations of soluble lysates were measured using the Bradford assay. The soluble lysates were incubated for 20 minutes in assay buffer or assay buffer with a proprietary thioredoxin reductase specific inhibitor before adding a specific substrate, DTNB (5, 5′-dithiobis (2-nitrobenzoic) acid), and measuring activity at 20 second intervals for 40 minutes using the SpectraMax Plus Microplate Reader (Molecular Devices, Sunnyvale, CA) at λ = 412 nm. Lysates were tested in duplicate. TrxR activity was calculated based on the linear amount of TNB produced per minute per mg of total protein and adjusted for background activity from enzymes other than TrxR in the lysates.

B. pahangi = assay: Worm retrieval from B. pahangi infected gerbils treated orally; type: in vivo, Mongolian gerbils (Meriones unguiculatus); conditions: for reduction in worm burden: 48 doses over 28 days, vs vehicle
Experimental: Animal studies were performed under IACUC approval #AN085723–02 to test the efficacy of auranofin in vivo. Male Mongolian gerbils (Meriones unguiculatus, Charles River Laboratories International, Inc., Wilmington, MA) were injected intraperitoneally (IP) with 300 B. pahangi L3 (Filariatech, Inc., Athens, GA) and treated 3 months post-infection. Auranofin was dissolved in 100% ethanol at 4 mg/mL and mixed 1:1 with PBS. Vehicle doses consisted of the same mixture of ethanol and PBS but without auranofin. Doses (up to 200 μl) were given to gerbils orally at 5 mg/kg body weight, BID weekdays and SID weekends for a total of 48 doses over 4 weeks.
Two studies (Study 1 and Study 2) were conducted using the same protocols and the same dosing schedule except that in Study 1, two gerbils from the auranofin treatment group and two gerbils from the vehicle group were treated for 14 days and were necropsied 2 hours after their last dose (interim necropsy) to determine plasma gold levels (from auranofin). The remaining gerbils in Study 1 were treated for 28 days and were necropsied 11, 14, or 16 days after the end of dosing. In Study 2, all gerbils were treated for 28 days and were necropsied 16 days after the end of dosing. For both of these in vivo studies, worms were collected from the gerbil’s peritoneal cavity, counted, sexed and examined under a dissecting microscope. For each study a two-tailed Student’s T-test assuming equal variance was conducted using Microsoft Excel to determine the statistical significance of the difference in mean worm retrieval between the auranofin treated and vehicle treated groups. Gerbil blood was collected by cardiac puncture and plasma was sent to NMS Labs, Willow Grove, PA to determine plasma gold levels (elemental gold analysis) by graphite furnace atomic absorption spectroscopy.

O. volvulus L3 = assay: Onchocerca volvulus L3 molting inhibition in vitro; type: cell-based; conditions: O. volvulus L3, Day 6, inhibition of molting
Experimental: L3 stage larvae previously collected and cryopreserved in Cameroon were rapidly thawed in a 37°C water bath and washed in incomplete media comprised of a 1:1 ratio of Medium NCTC-109 and IMDM + GlutaMax-I containing 1X glutamine, penicillin, and streptomycin (all from Gibco by Life Technologies, Grand Island, NY). The number of worms was adjusted to about 10 worms per 50 μL in complete medium containing 20% heat inactivated FCS. Worms were distributed into the wells of a 96-well plate containing 50 μL of 1.5 × 10^5 normal human PBMCs. 100 μL of 2X auranofin (final concentrations of 30 μM, 10 μM, 3 μM, 1 μM and 0.3 μM) were added to each well for a final volume of 200 μL. Each concentration was tested in triplicate. Controls included 0.05% DMSO in complete medium and complete medium only with neither DMSO nor compound added. The 96-well plates were then incubated at 37°C in a 5% CO2 incubator for 6 days, then molting was assessed using an inverted microscope. Molting was determined in each well by counting the presence of fourth-stage larvae (L4) and empty casts of the L3. The percent inhibition of molting was calculated based on the number of treated larvae that were able to molt in comparison to the number of control larvae that had successfully molted. Prism 4.0 for Windows was used to calculate IC50s.

glutathione peroxidase = molecular target: glutathione peroxidase; design: method as in PMID 9685351; conditions: higher IC50; cited from earlier work
glutathione reductase = molecular target: glutathione reductase; design: method as in PMID 9685351; conditions: higher IC50; cited from earlier work
adult male O. ochengi = assay: Adult male Onchocerca ochengi motility scoring in vitro; type: cell-based; conditions: Day 5, motility
O. ochengi microfilariae = assay: Onchocerca ochengi microfilariae motility in vitro; type: cell-based; conditions: Day 5
Experimental: O. ochengi microfilariae were obtained from the umbilical skin of infected cattle and cultured on confluent monkey kidney epithelial cells for drug testing as previously described.
Microfilariae (10–15 per well) were cultured in 96-well culture plates in duplicate under the same conditions and drug concentrations as were used for the adult O. ochengi, except that 10 μg/mL ivermectin was used as a positive control. Microfilariae viability was visually scored based on motility reduction using the same scale described above for adult male O. ochengi. Scores were recorded every 24 hours after the addition of drugs for 5 days using an inverted microscope.

[2] = Study 1 interim necropsy, 14 days of treatment

CC[PH](CC)(CC)[Au][S][C@@H]1O[C@H](COC(C)=O)[C@@H](OC(C)=O)[C@H](OC(C)=O)[C@H]1OC(C)=O [auranofin, 2,3,4,6-tetra-O-acetyl-1-thio-beta-D-glucopyranosato-S (triethylphosphine) gold]
Thioredoxin reductase activity, percent of DMSO control ([1]; 0.03 μM): 69% | Thioredoxin reductase activity, percent of DMSO control ([1]; 0.1 μM): 33% | Thioredoxin reductase activity, percent of DMSO control ([1]; 0.3 μM): 15% | reduction in worm burden (B. pahangi; Study 1, 5 mg/kg oral, not statistically significant (p > 0.05)): 58% | average number of worms (B. pahangi; Study 1, all treated animals (n = 9), vehicle 9.4): 4.0 worms | female worms (B. pahangi; [2]): 7 | male worms (B. pahangi; [2]): 4 | total number of worms (B. pahangi; Study 1 interim necropsy, 14 days of treatment, two gerbils, vehicle 43): 11 | male worms recovered (B. pahangi; Study 2): 11 | reduction in worm burden (B. pahangi; Study 2, 5 mg/kg oral, necropsy 16 days after end of dosing, p = 0.01): 91% | female worms recovered (B. pahangi; Study 2, remaining female encapsulated with host tissue): 1 | mean worms per gerbil (B. pahangi; Study 2, vehicle 32): 3 worms per gerbil | total worms recovered (B. pahangi; Study 2, vehicle 161): 12 | IC50 (O. volvulus L3): 300 nM | IC50 relative to TrxR isolated from human placenta (glutathione peroxidase): about 1000 fold | IC50 relative to TrxR isolated from human placenta (glutathione reductase): about 1000 fold | IC50 (adult male O. ochengi): 400 nM | IC50 (O. ochengi microfilariae): 3000 nM
